Counter-ions that a name gives are not always drawn.
Experiments:
[1] = target: MTHFD2 (Homo sapiens (Human), UniProt P13995); assay: Inhibition of MTHFD2 (NAD(P)H-Glo luminescence); type: biochemical; conditions: 3.4 nmol/L MTHFD2, 5 μmol/L folitixorin, 250 μmol/L NAD+; mean of at least 3 independent measurements
Procedure: DMSO was used as negative control. The serial dilution in DMSO, from compound DMSO stock solution, was created by dispensing from a 384-well low dead volume microplate (LP-0200, Labcyte) and a 384-well polypropylene microplate 2.0 (PP-0200, Labcyte). A total of 2.5 μL MTHFD2 was preincubated with compound or DMSO for 10 min. The enzymatic reaction was initiated by adding 2.5 μL folitixorin (F680350, Toronto Research Chemicals). For background control, 5 μL buffer was added to the well. […] The final concentrations of all reagents in a total assay volume of 5 μL per well were 50 mmol/L Tris-HCl at pH 8.0, 100 mmol/L NaCl, 5 mmol/L MgCl2, 25 mmol/L Na3PO4 at pH 8.0, 0.005% (v/v) Tween-20, and 2 mmol/L 2-mercaptoethanol. After 15 min reaction time, 5 μL NAD(P)H-Glo detection reagent (G9061 or G9062, Promega) was dispensed in all wells and the plate was incubated for 60 min. Luminescence was measured on a plate reader (Envision, PerkinElmer or Sense, Hidex). The light signal produced is proportional to the amount of NAD(P)H in the sample. IC50 values were determined by fitting a four parameter sigmoidal curve model using XLfit (IDBS). Reported IC50 values are the mean of at least 3 independent measurements.

[2] = test system: HL-60 cells; assay: Cancer cell viability assay (HL-60, resazurin); type: cell-based; conditions: Homo sapiens, 96 h, mean of at least 3 independent measurements, read-out: HL60 cell proliferation inhibition EC50
Procedure: HL-60 cells (human promyelocytic leukemia cells) were seeded in a 384-well plate at a density of 2,000 cells per well in 50 μL induction medium and treated with vehicle (DMSO) or an 11-point concentration range with 3-fold dilution in concentration of compound. Each assay point was run in duplicate. Wells without cells but with DMSO were used as negative controls. The cells were left to proliferate over a period of 96 h, in an incubator at 37° C. and 5% CO2, followed by an addition of 10 μL […] resazurin sodium salt (199303, Sigma-Aldrich) dissolved in DPBS (14190, Gibco). After 4 h of incubation at 37° C. and 5% CO2, the fluorescent signal was measured using an excitation wavelength of 544 nm and an emission wavelength of 595 nm in a Hidex Sense plate reader. Cell plates were incubated in boxes with damp paper tissues to avoid evaporation. All additions, except compound and DMSO, were done using the Multidrop Combi (Thermo Fisher Scientific). DMSO and compounds were pre-dispensed with an Echo 550 Liquid handler (Labcyte) in black, clear bottom, TC-treated and sterile 384-well plates (3764, Corning). Growth medium consisted of RPMI 1640 GlutaMAX (61870, Gibco), 10% (v/v) FBS (10500, Gibco), and 1% (v/v) P/S (15070, Gibco). Induction medium consisted of RPMI 1640 GlutaMAX (61870, Gibco), 5% (v/v) FBS (10500, Gibco), and 1% (v/v) P/S (15070, Gibco). EC50 values were determined by fitting a four parameter sigmoidal curve model using XLfit (IDBS). Reported EC50 values are the mean of at least 3 independent measurements.

Chain of MTHFD2 (P13995 36-350): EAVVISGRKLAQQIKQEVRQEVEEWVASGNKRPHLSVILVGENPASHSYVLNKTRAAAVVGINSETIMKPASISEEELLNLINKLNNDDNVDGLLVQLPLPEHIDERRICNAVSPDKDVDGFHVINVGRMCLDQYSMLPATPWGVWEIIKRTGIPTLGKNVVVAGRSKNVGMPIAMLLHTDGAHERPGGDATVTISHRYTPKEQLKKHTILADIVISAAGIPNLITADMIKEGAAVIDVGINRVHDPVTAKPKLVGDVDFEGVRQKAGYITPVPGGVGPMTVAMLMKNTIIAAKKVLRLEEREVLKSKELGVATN

IC50 [1] [nM] | EC50 [2] [nM] | SMILES
24 | 75 | Nc1nc(N)c(NC(=O)Nc2ccc(C(=O)N[C@@H](CCC(=O)O)C(=O)O)nc2)c(=O)[nH]1 [Example 1, (2S)-2-[(5-{[(2,4-diamino-6-oxo-1,6-dihydropyrimidin-5-yl)carbamoyl]amino}pyridin-2-yl)formamido]pentanedioic acid; trifluoroacetic acid]
68 | 10 | Nc1nc(N)c(NC(=O)Nc2ccc(C(=O)N[C@@H](Cc3ccccc3)C(=O)O)nc2)c(=O)[nH]1 [Example 2, (2S)-2-[(5-{[(2,4-diamino-6-oxo-1,6-dihydropyrimidin-5-yl)carbamoyl]amino}pyridin-2-yl)formamido]-3-phenylpropanoic acid; trifluoroacetic acid]
19 | 31 | CC(C)[C@H](NC(=O)c1ccc(NC(=O)Nc2c(N)nc(N)[nH]c2=O)cn1)C(=O)O [Example 3, (2S)-2-[(5-{[(2,4-diamino-6-oxo-1,6-dihydropyrimidin-5-yl)carbamoyl]amino}pyridin-2-yl)formamido]-3-methylbutanoic acid; trifluoroacetic acid]
12 | 24 | Nc1nc(N)c(NC(=O)Nc2ccc(C(=O)N[C@@H](CCc3nnn[nH]3)C(=O)O)nc2)c(=O)[nH]1 [Example 4, (2S)-2-[(5-{[(2,4-diamino-6-oxo-1,6-dihydropyrimidin-5-yl)carbamoyl]amino}pyridin-2-yl)formamido]-4-(1H-1,2,3,4-tetrazol-5-yl)butanoic acid]
15 | 93 | Nc1nc(N)c(NC(=O)Nc2cnc(C(=O)N[C@@H](CCC(=O)O)C(=O)O)c(Cl)c2)c(=O)[nH]1 [Example 5, (2S)-2-[(3-chloro-5-{[(2,4-diamino-6-oxo-1,6-dihydropyrimidin-5 yl)carbamoyl]amino}pyridin-2-yl)formamido]pentanedioic acid]
10 | 100 | Nc1nc(N)c(NC(=O)Nc2cnc(C(=O)N[C@@H](CCC(=O)O)C(=O)O)c(F)c2)c(=O)[nH]1 [Example 6, (2S)-2-[(5-{[(2,4-diamino-6-oxo-1,6-dihydropyrimidin-5-yl)carbamoyl]amino}-3-fluoropyridin-2-yl)formamido]pentanedioic acid]
154 | 17 | Nc1nc(N)c(CC(=O)Nc2ccc(C(=O)N[C@@H](CCC(=O)O)C(=O)O)nc2)c(=O)[nH]1 [Example 7, (2S)-2-((5-[2-(2,4-diamino-6-oxo-1,6-dihydropyrimidin-5-yl)acetamido]pyridin-2-yl)formamido)pentanedioic acid hydrochloride]
312 | 62 | Nc1nc(N)c(CC(=O)Nc2ccc(C(=O)N[C@@H](Cc3ccccc3)C(=O)O)nc2)c(=O)[nH]1 [Example 8, (2S)-2-({5-[2-(2,4-diamino-6-oxo-1,6-dihydropyrimidin-5-yl)acetamido]pyridin-2-yl}formamido)-3-phenylpropanoic acid]
53 | 35 | Nc1nc(N)c(CC(=O)Nc2ccc(C(=O)N[C@@H](CCc3nnn[nH]3)C(=O)O)nc2)c(=O)[nH]1 [Example 9, (2S)-2-((5-[2-(2,4-diamino-6-oxo-1,6-dihydropyrimidin-5-yl)acetamido]pyridin-2-yl)formamido)-4-(1H-1,2,3,4-tetrazol-5-yl)butanoic acid]
46 | 37 | Nc1nc(N)c(NC(=O)Nc2ccc(C(=O)N[C@@H](CC3CCCC3)C(=O)O)nc2)c(=O)[nH]1 [Example 11, (2S)-3-cyclopentyl-2-[(5-{[(2,4-diamino-6-oxo-1,6-dihydropyrimidin-5-yl)carbamoyl]amino}pyridin-2-yl)formamido]propanoic acid]
17 | 7 | Nc1nc(N)c(NC(=O)Nc2ccc(C(=O)N[C@H](C(=O)O)C3CCCCC3)nc2)c(=O)[nH]1 [Example 12, (2S)-2-cyclohexyl-2-[(5-{[(2,4-diamino-6-oxo-1,6-dihydropyrimidin-5-yl)carbamoyl]amino}pyridin-2-yl)formamido]acetic acid]
103 | 215 | CC(C)[C@H](NC(=O)c1ccc(NC(=O)Cc2c(N)nc(N)[nH]c2=O)cn1)C(=O)O [Example 13, (2S)-2-({5-[2-(2,4-diamino-6-oxo-1,6-dihydropyrimidin-5-yl)acetamido]pyridin-2-yl}formamido)-3-methylbutanoic acid]
 | 187 | Nc1nc(N)c(NC(=O)Nc2ccc(C(=O)N[C@@H](CCc3ccccc3)C(=O)O)nc2)c(=O)[nH]1 [Example 14, (2S)-2-[(5-{[(2,4-diamino-6-oxo-1,6-dihydropyrimidin-5-yl)carbamoyl]amino}pyridin-2-yl)formamido]-4-phenylbutanoic acid]
23 | 470 | Nc1nc(N)c(NC(=O)Nc2ccc(C(=O)N[C@H](C(=O)O)c3ccccc3)nc2)c(=O)[nH]1 [Example 15, (2S)-2-[(5-{[(2,4-diamino-6-oxo-1,6-dihydropyrimidin-5-yl)carbamoyl]amino}pyridin-2-yl)formamido]-2-phenylacetic acid]
11 | 197 | Nc1nc(N)c(NC(=O)Nc2ccc(C(=O)N[C@@H](CCC(=O)NS(=O)(=O)c3ccccc3)C(=O)O)nc2)c(=O)[nH]1 [Example 16, (2S)-4-[(benzenesulfonyl)carbamoyl]-2-[(5-{[(2,4-diamino-6-oxo-1,6-dihydropyrimidin-5-yl)carbamoyl]amino}pyridin-2-yl)formamido]butanoic acid]
32 | 200 | Nc1nc(N)c(NC(=O)Nc2ccc(C(=O)N[C@@H](CCCC(=O)O)C(=O)O)nc2)c(=O)[nH]1 [Example 17, (2S)-2-[(5-{[(2,4-diamino-6-oxo-1,6-dihydropyrimidin-5-yl)carbamoyl]amino}pyridin-2-yl)formamido]hexanedioic acid]
3 | 45 | Nc1nc(N)c(NC(=O)Nc2ccc(C(=O)N[C@@H](CCC(=O)O)C(=O)O)nc2OC2CC2)c(=O)[nH]1 [Example 18, (2S)-2-[(6-cyclopropoxy-5-{[(2,4-diamino-6-oxo-1,6-dihydropyrimidin-5-yl)carbamoyl]amino}pyridin-2-yl)formamido]pentanedioic acid]
72 | 8 | Nc1nc(N)c(CC(=O)Nc2cnc(C(=O)N[C@@H](CCC(=O)O)C(=O)O)c(Cl)c2)c(=O)[nH]1 [Example 19, (2S)-2-((3-chloro-5-[2-(2,4-diamino-6-oxo-1,6-dihydropyrimidin-5-yl)acetamido]pyridin-2-yl)formamido)pentanedioic acid]
913 | 34 | Cc1cc(NC(=O)Cc2c(N)nc(N)[nH]c2=O)cnc1C(=O)N[C@@H](CCC(=O)O)C(=O)O [Example 20, (2S)-2-({5-[2-(2,4-diamino-6-oxo-1,6-dihydropyrimidin-5-yl)acetamido]-3-methylpyridin-2-yl}formamido)pentanedioic acid]
298 | 8620 | C=Cc1nc(C(=O)N[C@@H](CCC(=O)O)C(=O)O)ccc1NC(=O)Cc1c(N)nc(N)[nH]c1=O [Example 21, (2S)-2-((5-[2-(2,4-diamino-6-oxo-1,6-dihydropyrimidin-5-yl)acetamido]-6-ethenylpyridin-2-yl)formamido)pentanedioic acid]
195 | 12800 | Nc1nc(N)c(NC(=O)Nc2ccc(C(=O)N[C@@H](CC(=O)O)C(=O)O)nc2)c(=O)[nH]1 [Example 22, (2S)-2-[(5-{[(2,4-diamino-6-oxo-1,6-dihydropyrimidin-5-yl)carbamoyl]amino}pyridin-2-yl)formamido]butanedioic acid]

SMILES | IC50 [1] [nM] | EC50 [2] [nM]
Nc1nc(N)c(CC(=O)Nc2cnc(C(=O)N[C@@H](CCC(=O)O)C(=O)O)c(F)c2)c(=O)[nH]1 [Example 10, (2S)-2-((5-[2-(2,4-diamino-6-oxo-1,6-dihydropyrimidin-5-yl)acetamido]-3-fluoropyridin-2-yl)formamido)pentanedioic acid] |  | 14

Reference: patent US11504368B2, “2,6-diamino-3,4-dihydropyrimidin-4-one derivatives and use thereof in therapy” (THOMAS HELLEDAYS STIFTELSE FÖR MEDICINSK FORSKNING, priority 2018, dated 2022)
